Experiments:
[1] = Phase 2 study in classic CAH: pharmacokinetics; type: in vivo, human; details: 200 to 1000 mg QD, patients with CAH
From the text: FIG. 2. Graphic representation of pharmacokinetics (dose-proportional, adequate exposure at safe doses) in patients with CAH following 14-days of once daily dosing at each dose level with a CRF1 antagonist (Compound 1).
FIG. 3. Graphic representation of pharmacokinetics (dose-proportional, adequate exposure at safe doses) in patients with CAH following 14-days of once daily dosing at each dose level with a CRF1 antagonist (Compound 1).
(§1) An ongoing Phase 2 open-label study (Study Compound 2) is currently evaluating the safety and efficacy of Compound 1 dosed once daily for 6 weeks in adults with classic CAH. In the initial Cohort A of this study, all subjects are dosed starting at 200 mg/day for 14 days, escalating for each subject to 600 mg/day for 14 days, then 1000 mg/day for 14 days if the subject experiences no DLTs at the previous dose level. (FIGS. 2-3).
(§2) The objectives of the study are: to assess the ability of Compound 1 to reduce excess ACTH and adrenal steroid production in participants with classic CAH on a stable gluococorticoid regimen; to evaluate the safety and tolerability of tildacerfont in participants with classic CAH; and to evaluate the pharmacokinetics (PK) of tildacerfont.

[2] = system: ACTH, 17OHP and androstenedione (A4) in participants with classic CAH; assay: Phase 2 open-label study in adults with classic CAH: change in ACTH, 17OHP and A4; type: in vivo, human
Description: as §1
30% of subjects were in the normal range (*) after treatment with a CRF1 receptor antagonist.
50% of subjects were in the guideline range (*; 1200 ng/dL) after treatment with a CRF1 receptor antagonist.
50% of subjects were within the normal reference range after treatment with a CRF1 receptor antagonist.
as §2
• Adult males and females 18 years or older • Diagnosis of classic CAH due to 21-hydroxylase deficiency • Morning 17OHP≥800 ng/dL, before taking any morning GC dose • On a stable regimen of gluococorticoid replacement for ≥30 days before enrollment Exclusion Criteria: • Clinically significant unstable medical condition, illness, or chronic disease within 30 days of screening • Clinically significant psychiatric disorder • History of bilateral adrenalectomy or hypopituitarism Study Design
FIG. 14 depicts the proof of concept and escalating QD dosing at 10 PM for Cohort A and the single dose level and BID dosing at 10 AM and 10 pm for Cohort B.
(§3) One participant withdrew early because of an occupation-related scheduling conflict. In Cohort B, 9 participants were enrolled and received at least one dose of Compound 1. […] Thus, baseline characteristics are calculated for n=8 in Cohort B. One participant in Cohort B was taking both HC and prednisone.

[3] = system: testicular adrenal rest tumors (TART); assay: TART size pre-treatment vs 6 weeks post-treatment in a patient with classic CAH; type: in vivo, human; details: person with classic CAH, 6 weeks treatment
From the text: FIG. 10A-10B. Images of a patient with TART pre-treatment with a CRF1 antagonist (Compound 1) (A) and 6-weeks post-treatment with a CRF1 antagonist (Compound 1) (B).
FIGS. 10A-10B show approximately 25% shrinkage in TART in a person with classic congenital adrenal hyperplasia following 6 weeks treatment with a CRF1 receptor antagonist.

[4] = system: participants with classic CAH; assay: Phase 2 study in classic CAH: safety and tolerability; type: in vivo, human; details: across both cohorts
Description: as §1, §2, §3

CRF1 receptor [5] = molecular target: T1, CRF1 receptor (Homo sapiens, UniProt P34998); assay: In vitro and ex vivo CRF1 receptor binding studies
T1 sequence (P34998 24-415): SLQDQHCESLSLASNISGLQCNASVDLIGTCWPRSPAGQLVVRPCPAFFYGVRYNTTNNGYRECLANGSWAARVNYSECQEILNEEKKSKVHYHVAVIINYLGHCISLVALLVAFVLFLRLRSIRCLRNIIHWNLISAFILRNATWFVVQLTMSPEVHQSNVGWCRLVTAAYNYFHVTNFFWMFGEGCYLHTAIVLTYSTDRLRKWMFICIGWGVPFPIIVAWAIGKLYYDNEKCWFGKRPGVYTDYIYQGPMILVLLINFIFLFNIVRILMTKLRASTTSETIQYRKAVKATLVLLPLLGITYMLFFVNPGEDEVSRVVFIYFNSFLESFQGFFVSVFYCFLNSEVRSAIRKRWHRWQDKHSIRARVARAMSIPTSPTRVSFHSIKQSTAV
Description: (§4) FIG. 11A-11B. Graphic representation of an […] binding assay of a CRF1 antagonist (Compound 1); ^125I-sauvagine binding to rat cerebellar membranes one hour after oral administration of increasing Compound 1 doses (A) and in vivo inhibition of CRF-induced activity after treatment with a CRF1 antagonist; Compound 1 (oral, 10 mg/kg) (B).

beagle dogs = assay: Repeat-dose oral toxicology study, 91 days, beagle dogs; type: in vivo, dog
From the text: (§5) The nonclinical safety profile of Compound 1 has been evaluated in repeat-dose range-finding and definitive toxicology studies of up to 91 days in duration in rats and dogs using the clinically relevant route (oral) and schedule of administration (once daily).

healthy volunteers = assay: Phase 1 studies in healthy volunteers: safety and tolerability; type: in vivo
From the text: Clinical laboratory measures of testicular function (LH, FSH, inhibin B, and SHBG) will be assessed throughout this study to monitor the risk of testicular injury. Testicular ultrasounds and semen analysis will also be performed at screening/baseline and the end of the treatment period.
Clinical laboratory measures of liver chemistry will be assessed throughout this study, and strict individual treatment stopping criteria for liver chemistry findings are in place.

[6] = Phase 1 studies in healthy volunteers: pharmacokinetics; type: in vivo
Description: The specification of study drug dosing at 10 pm and after consumption of a snack is based on information from the Phase 1 studies in healthy volunteers. The plasma Cmax (maximum concentration) for Compound 1 in the Phase 1 studies occurred approximately 5 hours after dosing. Therefore, Compound 1 will be dosed daily at 10 pm in this study in order to achieve peak plasma study drug concentration at the time of day when most adrenal androgens are produced. […] Specific dose reduction criteria, strict individual treatment stopping criteria, and appropriate laboratory and medical assessments have been established to ensure subject safety. (FIGS. 1A-1B).
To date, a total of 53 subjects, all healthy adults aged 21 to 65 years, have been treated with at least 1 dose of Compound 1 in 2 Phase 1 studies. The first-in-human study of Compound 1 (Study I3C-FW-BLAA) evaluated single ascending doses of 2 mg to 800 mg. […] A subsequent study (Study I3C-FW-BLAB) evaluated repeat doses of 50 mg, 100 mg, or 200 mg Compound 1 once daily for 14 consecutive days.

[7] = system: CRF-induced locomotor behavior; assay: CRF-induced locomotor behavior after i.c.v. administration of CRF; type: in vivo; details: oral, 10 mg/kg
Description: as §4

rats = assay: Repeat-dose oral toxicology study, 91 days, rats; type: in vivo, rat
From the text: as §5

male rats = assay: Fertility toxicology study in male rats; type: in vivo, rat
Description: Additionally, a fertility toxicology study was conducted in rats. In this study, male rats were administered oral Compound 1 once daily at 0, 5, 20, or 1000 mg/kg for 85 to 87 days (70 days before mating, during mating, and ≤4 days between mating and necropsy). Male reproductive performance (mean day of mating, mating and fertility indices, and conception rates) was unaffected by Compound 1 treatment.

CRF1 receptor [8] = molecular target: T1, CRF1 receptor; assay: Inhibition of adenylate cyclase activity (CRF1 receptor-mediated downstream cascade); type: biochemical; details: in vitro
[9] = Nonclinical studies: liver function tests; type: in vivo; details: significantly higher doses
From the text: However, these events were not observed in the Phase 1 clinical studies. Clinical laboratory measures of liver chemistry will be assessed throughout this study, and strict individual treatment stopping criteria for liver chemistry findings are in place.

[10] = CAH subjects, FIGS. 4 and 5A-5B
[11] = CAH subjects, FIGS. 6 and 7A-7B
[12] = CAH subjects, FIGS. 8 and 9A-9B
[13] = Cohort A (200, 600, 1000 mg QD)
[14] = healthy human subjects, Phase 1

SMILES: CCC(CC)c1cc(C)nc2c(-c3sc(N4CCOCC4)nc3Cl)c(C)nn12 [Compound 1, tildacerfont]
- PK profile [1]: predictable, dose-dependent PK profile
- subjects in the normal range for ACTH after treatment [2, 10]: 30 % of subjects
- subjects who demonstrated >25% reduction in ACTH [2, 10]: 70 % of subjects
- subjects who demonstrated reduction in ACTH [2, 10]: 80 % of subjects
- subjects in the guideline range (1200 ng/dL) for 17-OHP after treatment [2, 11]: 50 % of subjects
- subjects who demonstrated >25% reduction in ACTH (printed in the 17-OHP paragraph) [2, 11]: 50 % of subjects
- subjects who demonstrated reduction in 17-OHP [2, 11]: 80 % of subjects
- subjects who demonstrated >25% reduction in androstenedione [2, 12]: 60 % of subjects
- subjects within the normal reference range for androstenedione after treatment [2, 12]: 50 % of subjects
- subjects who demonstrated reduction in androstenedione ([2]; CAH subjects, at various doses, FIGS. 8 and 9A-9B): 100 % of subjects
- participants whose levels of 17OHP improved at ≥1 dose level [2, 13]: 8 out of 10
- participants whose levels of A4 improved at ≥1 dose level [2, 13]: 10 out of 10
- participants whose levels of ACTH improved at ≥1 dose level [2, 13]: 8 out of 10
- Percentage change from baseline in 17OHP ([2]; Cohort A, 200 mg QD (Week 2)): +22.2 (±172.3) %
- Percentage change from baseline in A4 ([2]; Cohort A, 200 mg QD (Week 2)): −12.1 (±47.4) %
- Percentage change from baseline in ACTH ([2]; Cohort A, 200 mg QD (Week 2)): −25.7 (±51.6) %
- Percentage change from baseline in 17OHP ([2]; Cohort A, 600 mg QD (Week 4)): −23.7 (±64.2) %
- Percentage change from baseline in A4 ([2]; Cohort A, 600 mg QD (Week 4)): −33.2 (±36.5) %
- Percentage change from baseline in ACTH ([2]; Cohort A, 600 mg QD (Week 4)): −60.1 (±37.5) %
- Percentage change from baseline in 17OHP ([2]; Cohort A, 1000 mg QD (Week 6)): −13.8 (±74.7) %
- Percentage change from baseline in A4 ([2]; Cohort A, 1000 mg QD (Week 6)): −28.6 (±44.6) %
- Percentage change from baseline in ACTH ([2]; Cohort A, 1000 mg QD (Week 6)): −32.7 (±47.0) %
- participants whose levels of 17OHP improved at ≥1 dose level ([2]; Cohort B (200 mg BID)): 6 out of 7
- participants whose levels of A4 improved at ≥1 dose level ([2]; Cohort B (200 mg BID)): 6 out of 8
- participants whose levels of ACTH improved at ≥1 dose level ([2]; Cohort B (200 mg BID)): 5 out of 7
- Percentage change from baseline in 17OHP ([2]; Cohort B, 200 mg BID (Weed 2)): −47.8 (±63.3) %
- Percentage change from baseline in A4 ([2]; Cohort B, 200 mg BID (Weed 2)): −16.0 (±81.4) %
- Percentage change from baseline in ACTH ([2]; Cohort B, 200 mg BID (Weed 2)): −36.5 (±58.0) %
- shrinkage in TART [3]: approximately 25%
- most common type of adverse event (AE) [4]: gastrointestinal disorders
- serious AEs and AEs leading to withdrawal [4]: no serious AEs and no AEs leading to withdrawal
- tolerability [4]: generally well tolerated
- affinity and selectivity for the hCRF1 receptor (CRF1 receptor [5]): high affinity and selective for the hCRF1 receptor
- reversibility of findings (beagle dogs; beagle dogs, 6-week treatment-free recovery period): reversible
- toxicologic findings (beagle dogs; beagle dogs, oral once daily, 91 days, up to 2000 mg/kg/day): all mild and limited to the male reproductive tract
- effects on the thyroid gland (beagle dogs; dogs, 91 days, high-dose 2,000 mg/kg/day): effects on the thyroid gland were noted
- testicular effects (beagle dogs; dogs, high-dose 2,000 mg/kg/day): reversible testicular effects (degeneration/atrophy)
- laboratory abnormalities in liver function tests (LFTs) (healthy volunteers; Phase 1 clinical studies): not observed
- alterations in safety laboratory values, vital signs, or electrocardiograms (ECGs) (healthy volunteers; Phase 1 studies): no clinically significant alterations
- adverse events, single ascending doses (healthy volunteers; Study I3C-FW-BLAA, 2 mg to 800 mg, small number of subjects): diarrhea and headache of mild or moderate severity
- adverse events, repeat doses (healthy volunteers; Study I3C-FW-BLAB, 50, 100 or 200 mg once daily for 14 days, small number of subjects): dyspnea, rhinorrhea, palpitations, and headache
- SAEs, AEs leading to discontinuation, dose-limiting toxicities (healthy volunteers; [14]): no SAEs, AEs leading to discontinuation, or dose-limiting toxicities (DLTs)
- tolerability (healthy volunteers; [14]): well tolerated
- effects on clinical laboratory markers of testicular function (LH and FSH) (healthy volunteers; healthy male volunteers, up to 200 mg per day for 14 consecutive days): no effects
- maximum tolerated dose (healthy volunteers; humans): has not been reached
- study drug absorption in a fasted state [6]: minimal study drug absorption
- inhibition of CRF-induced locomotor behavior [7]: significantly inhibit
- reversibility of findings (rats; 6-week treatment-free recovery period): reversible
- testicular effects (rats; high-dose 2,000 mg/kg/day): reversible testicular effects (degeneration/atrophy)
- toxicologic findings (rats; oral once daily, 91 days, up to 2000 mg/kg/day): all mild and limited to the male reproductive tract
- male reproductive performance (mean day of mating, mating and fertility indices, conception rates) (male rats; male rats, oral once daily 5, 20 or 1000 mg/kg for 85 to 87 days): unaffected
- impairment in fertility (male rats; male reproductive studies in rodents, highest dose tested 1,000 mg/kg/day): no impairment in fertility
- ovarian and uterine effects in untreated females mated with treated males (male rats; rats): no ovarian and uterine effects
- inhibition of adenylate cyclase activity (CRF1 receptor [8]): functional potency to inhibit adenylate cyclase activity
- laboratory abnormalities in liver function tests (LFTs) [9]: have been observed at significantly higher doses

— patent US12576084B2, “Methods for treating testicular and ovarian adrenal rest tumors” (Spruce Biosciences, Inc., priority 2018, dated 2026)
